# Data as given in patent US20060153906A1, “Pharmaceutical product for endonasal administration for treating central nervous system disease and disorders” (priority 2002, published 2006).
# Read-outs that look alike come from different tables or passages of the source.
# Legend:
# rear paw of the rats = assay: Randall-Selitto pain test, critical pressure (WKD) on the rear paw; assay type: in vivo, rat
# Protocol: The anti-nociceptive and/or analgesic effect of promedol (trimeperidine) was investigated as a result of the endonasal administration of the combination H2O2+promedol. The experiments were conducted with (raceless) sexually mature white male rats. In a pain test, the value of the critical pressure (WKD) on the rear paw of the rats was measured. The controlled pressure on the paw was generated with an analgesimeter from the company Ugo Basile in form of the Randall-Selitto test.
# Comparative results in relation to the composition of the invention include, on one hand, the intraperitoneal administration of promedol without the addition of oxygen anion radicals and, on the other hand, the intraperitoneal administration of promedol with addition of oxygen anion radicals by, on one hand, inhalation with the inhalation device described in DE 41 12 459 A1 and, on the other hand, by separate endonasal administration of a liquid hydrogen peroxide solution with a concentration of 10^−5 mole/l.
# The administration according to the invention consisted of a mixture of xanthine-oxidase/xanthine and promedol in doses of 5, 2, 1, and 0.1 mg/kg bodyweight of the animals.
# [1] = system: patients with persistent or severe pain; assay: Analgesic effect in patients with persistent or severe pain; assay type: in vivo, human
# Text: The enhancement of the therapeutic efficacy of the analgesic metamizol was investigated. A total of 5 volunteers participated in the observations. […] With all patients, the observations were made after six hours following the last administration of the pain therapy.
# rats = system: rats
# Text: It should be emphasized that dopamine is not capable of penetrating the blood-brain barrier when administered conventionally.
# white male rats = assay: Food motivation in partially food-deprived rats, endonasal administration; assay type: in vivo, rat
# Text: The experiments where carried out with white male rats. The animals of the control group 1 (n=13) received distilled water, the animals of the control group 2 (n=7) received a glucose solution, and the animals of the experimental group (n=9) received the composition H2O2+glucose. The duration of the observation was 17 days. During the first 11 days, the animals where controllably partially deprived of food (20 g dry mixed feed per animal). During the first week of the experiment, the initial motivation level for food was evaluated in the absence of the investigated preparation. The following parameters were investigated:
# Latent period (LP) between the approach to the food and presentation of the food in seconds;
# Time for consuming the food, in seconds (Tfut.);
# Number of interruptions during food uptake (Ubr.)
# After the second week, without changing the feed conditions, the preparation was introduced twice daily in a dose of 20 μl per animal, and all parameters where recorded. After the second week, the animals where fed ad libidum. No changes were made in the administration of the preparation and recordation of all parameters.
# The experiments where conducted as in Example 1.
# white mice = assay: Soporific effect (sleep duration) after endonasal administration; assay type: in vivo, mouse; conditions: 60 mg/ml, n = 7
# Text: Investigated was the effect of phenobarbital in an endonasal administration on sexually mature white mice. Both the sedative and the soporific effect of the endonasal administration of phenobarbital without oxygen anion radicals were compared with the administration of the […]
# [2] = after administration of preparation, endonasal twice daily 20 μl per animal
# [3] = before administration minus after administration (Table 4)
# [4] = before administration of preparation
# [5] = rats given haloperidol i/p (100 mg/kg), one-time endonasal, dopamine 0.125 mg/kg, L-arginine 10^-5 mole/l, H2O2 10^-6 mole/l
compound,measurement,setting,value
"CCC(=O)OC1(c2ccccc2)CC(C)N(C)CC1C (stereo not drawn) [Promedol, trimeperidine]","Lower dose of promedol giving prolonged and enhanced analgesic effect, endonasal form with oxygen anion radicals vs other administration methods",rear paw of the rats; endonasal composition compared to other administration methods,10-50 times
same,Nociception (critical pressure WKD),"rear paw of the rats; group II, 1.0 mg/kg i/p, 30 min after injection",6.2 ± 1.9
same,Nociception (critical pressure WKD),"rear paw of the rats; group II, 1.0 mg/kg i/p, 90 min after injection",5.4 ± 1.4
same,Nociception (critical pressure WKD),"rear paw of the rats; group II, 1.0 mg/kg i/p, 150 min after injection",5.0 ± 1.2
same,Nociception (critical pressure WKD),"rear paw of the rats; group II, 1.0 mg/kg i/p, 210 min after injection",4.8 ± 0.9
same,Initial value of nociception (critical pressure WKD),"rear paw of the rats; group II, 1.0 mg/kg i/p",6.7 ± 0.9
same,Nociception (critical pressure WKD),"rear paw of the rats; group III, 2.0 mg/kg i/p, 30 min after injection",10.1 ± 1.1*)
same,Nociception (critical pressure WKD),"rear paw of the rats; group III, 2.0 mg/kg i/p, 90 min after injection",9.3 ± 1.0*)
same,Nociception (critical pressure WKD),"rear paw of the rats; group III, 2.0 mg/kg i/p, 150 min after injection",8.0 ± 1.1
same,Nociception (critical pressure WKD),"rear paw of the rats; group III, 2.0 mg/kg i/p, 210 min after injection",7.5 ± 0.9
same,Initial value of nociception (critical pressure WKD),"rear paw of the rats; group III, 2.0 mg/kg i/p",7.8 ± 1.6
same,Nociception (critical pressure WKD),"rear paw of the rats; group IV, 5.0 mg/kg i/p, 30 min after injection",11.0 ± 1.0**)
same,Nociception (critical pressure WKD),"rear paw of the rats; group IV, 5.0 mg/kg i/p, 90 min after injection",9.8 ± 1.3**)
same,Nociception (critical pressure WKD),"rear paw of the rats; group IV, 5.0 mg/kg i/p, 150 min after injection",8.3 ± 1.7*)
same,Nociception (critical pressure WKD),"rear paw of the rats; group IV, 5.0 mg/kg i/p, 210 min after injection",6.7 ± 1.0
same,Initial value of nociception (critical pressure WKD),"rear paw of the rats; group IV, 5.0 mg/kg i/p",6.4 ± 0.7
same,Nociception (critical pressure WKD),"rear paw of the rats; group V, 1.0 mg/kg i/p + O2- inhalation, 30 min",8.1 ± 3.6*)
same,Nociception (critical pressure WKD),"rear paw of the rats; group V, 1.0 mg/kg i/p + O2- inhalation, 90 min",8.1 ± 2.3**)
same,Nociception (critical pressure WKD),"rear paw of the rats; group V, 1.0 mg/kg i/p + O2- inhalation, 150 min",9.6 ± 5.0**)
same,Nociception (critical pressure WKD),"rear paw of the rats; group V, 1.0 mg/kg i/p + O2- inhalation, 210 min",5.8 ± 2.3
same,Initial value of nociception (critical pressure WKD),"rear paw of the rats; group V, 1.0 mg/kg i/p + O2- inhalation",6.9 ± 1.6
same,Nociception (critical pressure WKD),"rear paw of the rats; group VI, 1.0 mg/kg i/p + separate endonasal H2O2-administration, 30 min",8.4 ± 2.8*)
same,Nociception (critical pressure WKD),"rear paw of the rats; group VI, 1.0 mg/kg i/p + separate endonasal H2O2-administration, 90 min",8.7 ± 2.0**)
same,Nociception (critical pressure WKD),"rear paw of the rats; group VI, 1.0 mg/kg i/p + separate endonasal H2O2-administration, 150 min",8.6 ± 2.7**)
same,Nociception (critical pressure WKD),"rear paw of the rats; group VI, 1.0 mg/kg i/p + separate endonasal H2O2-administration, 210 min",7.3 ± 2.2
same,Initial value of nociception (critical pressure WKD),"rear paw of the rats; group VI, 1.0 mg/kg i/p + separate endonasal H2O2-administration",7.1 ± 1.8
Cc1c(N(C)CS(=O)(=O)O)c(=O)n(-c2ccccc2)n1C [metamizol],Analgesic efficacy in all patients,"[1]; endonasally, dose of 10 mg, without addition of oxygen anion radicals",not effective
same,Analgesic efficacy in all patients,"[1]; per os, dose of 500 mg",not effective
O=C(CCCN1CCC(O)(c2ccc(Cl)cc2)CC1)c1ccc(F)cc1 [Haloperidol],Total spontaneous activity (Number of measurable movements),"rats; haloperidol i/p alone (100 mg/kg bodyweight), unharmed control 35 ± 8",3 ± 3 ^##)
N[C@@H](CCC(=O)O)C(=O)O [glutamic acid],"LP, latent period between approach to the food and presentation of the food",white male rats; [2],36.3 ± 4.1 s
same,"Tfut., time for consuming the food",white male rats; [2],491.2 ± 9.4 s
same,Change in LP,white male rats; [3],33.3 ± 13.1 s
same,Change in Tfut.,white male rats; [3],-77.2 ± 26.6 s
same,Change in Ubr.,white male rats; [3],0.4 ± 0.6 s
same,"LP, latent period between approach to the food and presentation of the food",white male rats; [4],69.9 ± 15.9 s
same,"Tfut., time for consuming the food",white male rats; [4],414.0 ± 30.6 s
"OO [H2O2, hydrogen peroxide]",Total spontaneous activity (Number of measurable movements),rats; [5],3 ± 1.9 ^##)
"NCCc1ccc(O)c(O)c1 [Dopamine, dopamine]",Total spontaneous activity (Number of measurable movements),rats; [5],2 ± 1.7 ^##)
CCC1(c2ccccc2)C(=O)NC(=O)NC1=O [phenobarbital],Sleep duration,white mice,248.5 ± 22.2 min
